Data from publication PMC12346198 (Cancers, 2025).
Read-outs that look alike come from different tables or passages of the source.

Columns and labels:
SNU475 = assay: CCK-8 cytotoxicity assay, SNU475; type: cell-based, human; settings: 72 h treatment
Experimental: (§1) The cytotoxicity of compounds was determined by the CCK-8 assay (Cell Counting Kit-8, CK04, Dojindo Molecular Technologies, Kumamoto, Japan). Cell lines were plated at 10,000 cells/well in 96-well plates and incubated overnight to allow for adherence (5% CO2, 37 °C). […] Cells were placed back in the incubator for 72 h treatment. CCK-8 reagent was added, and plates were further incubated 1–4 h as directed by the supplier’s instructions. Optical density was measured using a Biotek Synergy H1 plate reader at 450 nm. Primary hepatocytes were plated at 30,000 cells or 50,000 cells/well and maintained according to the technical information bulletin provided by the supplier. Upon treatment, maintenance media were supplemented with 10% FBS and fresh test compound for all subsequent media changes, as directed.

SNU423 = assay: CCK-8 cytotoxicity assay, SNU423; type: cell-based; settings: Homo sapiens, SNU-423, 72 h treatment
Experimental: as §1

AR-SV = target: T1, AR-SV (Homo sapiens, UniProt P10275); assay: AR protein ELISA in SNU475 cells; type: cell-based; settings: 10 µM, 24 hours, AR ELISA (Figure S3A)
T1 sequence (P10275 1-628): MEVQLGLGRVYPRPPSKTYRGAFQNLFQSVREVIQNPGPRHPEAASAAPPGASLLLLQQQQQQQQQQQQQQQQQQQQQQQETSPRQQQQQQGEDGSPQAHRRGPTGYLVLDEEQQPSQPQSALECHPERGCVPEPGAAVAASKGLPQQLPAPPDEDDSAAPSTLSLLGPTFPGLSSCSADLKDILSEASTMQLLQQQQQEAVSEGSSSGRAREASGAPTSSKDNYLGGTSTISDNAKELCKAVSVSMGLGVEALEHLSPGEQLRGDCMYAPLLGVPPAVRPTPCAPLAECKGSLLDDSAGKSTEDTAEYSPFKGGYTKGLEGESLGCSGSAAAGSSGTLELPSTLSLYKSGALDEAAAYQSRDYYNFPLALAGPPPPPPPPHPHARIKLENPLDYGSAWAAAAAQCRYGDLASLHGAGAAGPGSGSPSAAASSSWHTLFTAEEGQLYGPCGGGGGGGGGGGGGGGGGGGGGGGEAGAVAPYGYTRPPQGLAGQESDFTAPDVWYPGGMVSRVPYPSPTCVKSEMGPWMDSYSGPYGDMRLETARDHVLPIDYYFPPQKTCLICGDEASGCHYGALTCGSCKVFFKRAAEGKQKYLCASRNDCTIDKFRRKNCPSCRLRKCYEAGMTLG
Experimental: (§2) Figure S3. […] (A) SNU475 cells were treated with 10 µM of each
(§3) compound for 24 hours before analysis by AR ELISA. (B ) (Left) Cellular invasion assay was performed on SNU475
(§4) Mean + SD One way ANOVA with
(§5) (Right) Cell viability was
(§6) (1 picture or pasted object on this page, not shown here)

Primary Male Hepatocytes = assay: CCK-8 cytotoxicity assay, primary male hepatocytes; type: cell-based; settings: 72 h treatment
Experimental: as §1

THLE-2 = assay: CCK-8 cytotoxicity assay, THLE-2; type: cell-based; settings: Homo sapiens, 72 h treatment
Experimental: as §1

[1] = Single-dose IV and PO pharmacokinetics in mice; type: in vivo, male C57BL/6 mice
Experimental: The in-life study and quantitative analysis of plasma samples using LC/MS were performed at Charles River Laboratories, Inc. (Wilmington, MA, USA).

HepG2 = assay: CCK-8 cytotoxicity assay, HepG2; type: cell-based, human; settings: 72 h treatment
Experimental: as §1

SNU475 cells [2] = assay: Hollow fiber assay (HFA) model of AR-SV HCC; type: in vivo; settings: BID PO one week; niclosamide 75, valine–niclosamide 106.1, valine–compound #7 87.3, compound #7 62.9 mg/kg; nude mice
From the text: The hollow fiber procedures were based upon those developed by Hollingshead et al. with technical consultation kindly provided by Drs. Joanna Burdette and Dan Lantvit (University of Illinois Chicago, Chicago, IL, USA). […] In order to utilize a PO dosing approach with the HFA, we extended the traditional HFA timeline to establish angiogenesis, as noted in the literature. […] Hollow fibers (KrosFlo Implant Membranes, M138615, Repligen, Waltham, MA, USA) were filled with 3 × 10^6 SNU475 cells/mL per length and heat-sealed into 2 cm lengths on Day −1. On Day 0, three fibers were implanted into 20-week-old male outbred homozygous athymic nude mice (Foxn1^nu/Foxn1^nu, The Jackson Laboratory, Bar Harbor, ME, USA) subcutaneously parallel to the spine. Following a 14-day waiting period to allow for angiogenesis around the fibers, treatment was initiated. […] On Day 21, mice were euthanized and hollow fibers were explanted. The MTT assay was performed according to the KrosFlo Implant Membrane protocol utilizing Thiazolyl Blue Tetrazolium Bromide (M2128, MilliporeSigma, Burlington, MA, USA).

[3] = 40 mg/kg dose PO; listed as niclosamide; cited from earlier work
SNU475 cells [4] = assay: Cell viability under invasion assay conditions; type: cell-based, human; settings: 1 µM
Experimental: as §2, §3, §4, §5, §6

SNU475 cells [5] = assay: Cellular invasion assay, SNU475; type: cell-based, human; settings: 1 µM and 10 µM, 48 h of treatment
Experimental: The BioCoat Matrigel invasion assay was performed according to the manufacturer’s instructions (BioCoat Matrigel Invasion Chambers, 354480, Corning, Corning, NY, USA). AR-negative clones and parental lines (SNU475 and HCCLM3) were hormone-deprived in phenol red-free RPMI1640 with 5% csFBS (±Pen-Strep) for 24 h. A total of 40,000 cells were suspended in a well insert in 0.5 mL of phenol red-free medium without csFBS over a well of 0.75 mL phenol red-free medium with 5% csFBS as a chemoattractant and incubated for 24 h. Invaded cells were fixed in 4% paraformaldehyde and stained with 0.1% crystal violet in 20% methanol. Cells in 10 different and non-overlapping fields of each membrane were photographed and counted. The Fluorometric QCM™ 24-Well Cell Invasion Assay (ECM 554, MilliporeSigma, Burlington, MA, USA) was executed as per the manufacturer’s protocol using 1.25 × 10^5 cells in 250 μL of serum-free medium and incubated for 24–72 h. Following cell lysis and staining with CyQuant GR Dye, fluorescence was measured in a plate reader using a 480/520 nm filter set.
as §2, §3, §4, §5, §6

[6] = Plasma stability, human plasma; type: in vitro ADME
Experimental: (§7) Samples were taken at 0, 30, 60, 120, 180, and 360 min to quantitate the disappearance of the valine conjugates and appearance of a cleaved parent. The matrix stability assay in plasma and the quantitative analysis of samples by UV-VIS HPLC were performed according to the standard protocol at Charles River Laboratories, Inc. (Wilmington, MA, USA).

[7] = Plasma stability, murine plasma; type: in vitro ADME, mouse
Experimental: as §7

[8] = IV, 2 mg/kg (valine conjugates 2 mg/kg EQV)
[9] = IV, 2 mg/kg (valine conjugates 2 mg/kg EQV), non-compartmental analysis
[10] = PO, 40 mg/kg (valine conjugates 40 mg/kg EQV)
[11] = male, C57BL/6, mouse, plasma, iv, 2 mg/kg, IV, 2 mg/kg (valine conjugates 2 mg/kg EQV), analyte = dosed compound, non-compartmental analysis, read-out: AUCall, Geo Mean
[12] = male, C57BL/6, mouse, plasma, iv, 2 mg/kg, IV, 2 mg/kg (valine conjugates 2 mg/kg EQV), read-out: Cmax, Geo Mean
[13] = male, C57BL/6, mouse, plasma, po, 40 mg/kg, PO, 40 mg/kg (valine conjugates 40 mg/kg EQV), analyte = dosed compound, non-compartmental analysis, read-out: AUCall, Geo Mean
[14] = male, C57BL/6, mouse, plasma, po, 40 mg/kg, PO, 40 mg/kg (valine conjugates 40 mg/kg EQV), read-out: Cmax, Geo Mean
[15] = male, C57BL/6, mouse, plasma, IV, 2 mg/kg (valine conjugates 2 mg/kg EQV), read-out: Tmax, Geo Mean
[16] = male, C57BL/6, mouse, plasma, PO, 40 mg/kg (valine conjugates 40 mg/kg EQV), read-out: Tmax, Geo Mean
[17] = male, C57BL/6, mouse, plasma, single IV dose, 2 mg/kg or molar equivalent, read-out: Systemic clearance following an IV dose (converted)
[18] = male, C57BL/6, mouse, in vivo, iv, 2 mg/kg
[19] = male, C57BL/6, mouse, in vivo, po, 40 mg/kg

SMILES | IC50 (SNU475) [nM] | IC50 (SNU423) [nM] | Decrease of AR protein levels compared to enzalutamide and sorafenib (AR-SV) | IC50 (Primary Male Hepatocytes; Hepatocyte, 72 h) [nM] | IC50 (THLE-2) [nM] | HL_Lambda_z, Geo Mean [1, 8] [h] | IV: Clobs, Geo Mean [1, 9] [L/h] | HL_Lambda_z, Geo Mean [1, 10] [h] | PO: Cl_Fobs, Geo Mean [1, 10] [L/h] | AUC [1, 11] [µM·h] | Cmax [1, 12] [µM] | AUC [1, 13] [µM·h] | Cmax [1, 14] [µM] | Tmax [1, 15] [min] | Tmax [1, 16] [min] | clearance [1, 17] [mL/min] | IC50 (HepG2; Homo sapiens, HepG2, 72 h) [nM] | IC50 (SNU475; Homo sapiens, SNU-475, 72 h) [nM] | Cell viability within hollow fibers (MTT assay) (SNU475 cells [2]) | other results
O=C(Nc1ccc(C(F)(F)F)cc1)c1cc(Cl)ccc1O [compound #11] | 7200 | 580 | more effectively decrease AR protein levels | 9500 | 560 | 0.96 | 0.03 | 2.68 | 0.35 | 5.06 | 11.3 | 7.98 | 6.08 | 4.8 | 25.2 | 0.5 | 1900 |  |  | IC50 (SNU475; listed as Compound #11): 890 nM; IC50 (Primary Male Hepatocytes; listed as Compound #11): 9470 nM; AUC ([1]; male, C57BL/6, mouse, plasma, po, 40 mg/kg, single PO dose, 40 mg/kg or molar equivalent, analyte = dosed compound, read-out: AUCall following an oral dose): 7.98 µM·h; IC50 (HepG2; listed as Compound #11): 1860 nM
O=C(Nc1ccc([N+](=O)[O-])cc1Cl)c1cc(Cl)ccc1O [Niclosamide, niclosamide, reference compound] | 1330 | 250 |  | 7200 | 370 |  |  |  |  |  |  |  |  |  |  |  | 600 | 1300 | no differences in cell viability | Plasma niclosamide concentration 4 h after oral administration [3]: roughly 0.10 µM; IC50 (Primary Male Hepatocytes): 7160 nM; Cell viability at 48 h (SNU475 cells [4]): not impacted; Expected plasma levels for up to 8 h post-dose ([1]; C57BL/6, mouse, in vivo): approximately 0.2 µM; PO: Cl_Fobs, Geo Mean ([1]; male, C57BL/6, mouse, in vivo): 0.78 L/h; Tmax [1, 18]: 4.8 min; clearance [1, 18]: 1.33 mL/min; Cmax ([1]; male, C57BL/6, mouse, in vivo, iv, 2 mg/kg, Cmax, Geo Mean): 6.03 µM; AUCall of parent following an oral dose of its valine conjugate [1, 19]: 0.8 µM·h; Tmax [1, 19]: 25.2 min; AUC ([1]; male, C57BL/6, mouse, in vivo, po, 40 mg/kg, AUCall following an oral dose of the unconjugated compound): 3.25 µM·h; Cmax ([1]; male, C57BL/6, mouse, in vivo, po, 40 mg/kg, Cmax following an oral dose of the unconjugated compound): 1.65 µM; Cmax ([1]; male, C57BL/6, mouse, in vivo, po, 40 mg/kg, Cmax, Geo Mean): 1.65 µM; SNU475 invasion (SNU475 cells [5]): decreased invasion
CC(C)[C@H](N)C(=O)OCCOCn1cnc2c(=O)[nH]c(N)nc21 [valacyclovir] |  |  |  |  |  |  |  |  |  |  |  |  |  |  |  |  |  |  |  | Formation of the cleaved parent ([6]; 360 min): readily detectable acyclovir; Percentage of pro-drug remaining intact ([6]; 6 h (360 min)): 66.4%; Formation of the cleaved parent ([7]; 360 min): readily detectable acyclovir; Percentage of pro-drug remaining intact ([7]; 6 h (360 min)): 37.7%
O=C(Nc1ccc(C(F)(F)F)cc1Cl)c1cc(Cl)ccc1O [compound #7] | 6600 | 280 | more effectively decrease AR protein levels | > 30000 | 310 | 4.85 | 0.04 | 3.58 | 0.21 | 3.7 | 6.98 | 13 | 5.79 | 4.8 | 15 | 0.667 | 450 | 4000 | no differences in cell viability | Expected plasma levels for up to 8 h post-dose ([1]; linearly scaled from PK data, BID 75 mg/kg niclosamide, 105.7 mg/kg valine–niclosamide, 87.3 mg/kg valine–compound #7, 62.9 mg/kg compound #7): 0.86 µM; AUC ([1]; male, C57BL/6, mouse, plasma, po, 40 mg/kg, PO 40 mg/kg of the parent compound, read-out: AUCall following an oral dose of the unconjugated compound): 13 µM·h; Cmax ([1]; male, C57BL/6, mouse, plasma, po, 40 mg/kg, PO 40 mg/kg of the parent compound, read-out: Cmax following an oral dose of the unconjugated compound): 5.78 µM
